Key:
[1] = test system: PSMA-expressing LNCaP cells; test: Cellular uptake and internalization in LNCaP cells, blocking with 2-PMPA; format: cell-based; conditions: 2-PMPA 100 µM
Description: Cellular uptake experiments were performed according to a previous report with slight modifications. LNCaP cells expressing PSMA were cultured in RPMI 1640 medium containing 10% fetal bovine serum (FBS) and 1% penicillin–streptomycin on 6-well culture plates (containing 5 × 10^5 cells/well) for 24 h in a humidified atmosphere (5% CO2) incubator at 37 °C. After removing the medium and washing with phosphate-buffered saline (PBS) (−) once, a mixed solution of [^125I]5 and [^211At]6, [^125I]5 and [^67Ga]Ga-PSMA-617, and [^125I]5 and [^67Ga]5 in 1.0 mL of medium without FBS was added (3.7 kBq/each tracer/well). The final concentrations of the radioligands for [^125I]5, [^211At]6, and [^67Ga]5 were 45.5 pM, 0.2 pM, and 2.5 pM, respectively. These solutions containing radioligands were diluted in saline containing 0.05% (w/v) bovine serum albumin (BSA) to prevent adsorption to tubes or plates and further diluted with medium to 0.00125% as the final BSA concentration. After incubation for 10, 60, and 120 min, the medium from each well was removed, and the cells were washed twice with ice-cold PBS (−); the surface of the cells was washed twice with ice-cold 0.2 M glycine buffer (pH 3.0). The cells were lysed using a 1 M NaOH aqueous solution. The radioactivity of ^67Ga,^125I and ^211At in the 1 M NaOH aqueous solution was determined and defined as the internalized radioligand fraction using an auto well gamma counter (ARC-8001, Hitachi, Ltd., Tokyo, Japan) according to a previous paper. The radioactivity was determined with an auto well gamma counter and corrected for background radiation and physical decay during counting. A window from 16 to 69 keV was used for counting ^125I, and a window from 70 to 120 keV was used for counting ^211At. Correlation factors to eliminate any crossover of ^125I activity in the ^211At counts were determined by measuring the ^125I standard in each window. More than one week after the experiments, the radioactivity counts of ^125I were measured after the decay of ^211At. The protein amount in cells was quantified using a BCA Protein Assay Kit (Nacalai Tesque, Kyoto, Japan) according to the manufacturer’s protocol. All data were expressed as percent dose per milligram protein (%dose/mg protein). In blocking experiments, a selective inhibitor of the PSMA, (2S)-2-(phosphonomethyl)pentanedioic acid (2-PMPA) (final concentration 100 µM), was added to each well with tracers. After incubation for 10, 60, and 120 min, radioactivity and protein concentration were determined in the same manner as the experiment without the blocking agent.

[2] = Biodistribution after intravenous co-injection of [125I]5 and [211At]6 (Table S2); format: in vivo, normal mice (ddY); conditions: normal mice
Description: [^67Ga]Ga-PSMA-617 (37 kBq) and [^125I]5 (37 kBq) or [^125I]5 (37 kBq) and [^211At]6 (37 kBq) were intravenously co-administered into three or four normal mice at each timepoint (6 weeks male ddY mice, 28–30 g, Japan SLC, Inc., Hamamatsu, Japan). Mice were sacrificed at 10 min, 1 h, 4 h, and 24 h ([^67Ga]Ga-PSMA-617 and [^125I]5) or at 10 min, 1 h, 4 h, 12 h, and 24 h ([^125I]5 and [^211At]6) postinjection of the radiolabeled compounds. Tissues of interest were removed and weighed, and the radioactivity of ^67Ga and ^125I and ^125I and ^211At were determined with an auto well gamma counter (ARC-8001) and corrected for background radiation as described in the Cellular Uptake Experiments Section. To determine the amount and routes of the radioactivity excreted from the body for 24 h after the injection of radiolabeled compounds, mice were housed in metabolic cages (METABOLICA, SUGIYAMA-GEN Co., Ltd., Tokyo, Japan). Data are shown as the percentage of injected dose per gram of tissues (%ID/g) or %ID.

[3] = Biodistribution with post-administration of albumin-binding competitor IPBA; format: in vivo, normal mice (ddY); conditions: normal mice, IPBA at 1 h postinjection, 10 molar equivalent of blood albumin; except in the kidney
Description: To evaluate the effects of an albumin-binding competitor (sodium salt of IPBA) in normal mice, [^125I]5 and [^211At]6 were intravenously co-administered. At 1 h postinjection of the radiolabeled compounds, IPBA (3.4 mg, 11 µmol) dissolved in saline at a 10 molar equivalent of blood albumin was administered. Mice were sacrificed at 65 min, 70 min, 2 h, 4 h, 12 h, and 24 h postinjection of [^125I]5 and [^211At]6. Tissues of interest were treated, and the radioactivity was measured in the same manner as above. Data are also shown as %ID/g or %ID.

[4] = In vitro stability test in 0.1 M phosphate buffer; format: physicochemical; conditions: 0.1 M PB solution containing 10% ethanol, 37 °C, 24 h, mean ± SD for three samples
Description: samples were analyzed by RP-HPLC using a Cosmosil 5C18-AR-II (4.6 × 150 mm) at a flow rate of 1 mL/min with a gradient mobile phase of 60% methanol in water with 0.1% trifluoroacetic acid (TFA) to 80% methanol in water with 0.1% TFA for 20 min.
In vitro stability test in 0.1 M PB solution containing 10% ethanol was performed. The […]
and 97.1 ± 0.9% (mean ± SD for three samples) after incubating at 37 °C for 24 h, […]

## O=C([O-])CN1CCN(CC(=O)[O-])CCN(CC(=O)NC(CCCCNC(=O)CCCc2ccc([211At])cc2)C(=O)NCC2CCC(C(=O)NC(Cc3ccc4ccccc4c3)C(=O)NCCCCC(NC(=O)NC(CCC(=O)O)C(=O)O)C(=O)O)CC2)CCN(CC(=O)[O-])CC1.[Ga+3] (stereo not shown) [[^211At]6]
[1]
  Effect of excess 2-PMPA on cellular uptake: significantly reduced
[2]
  In vivo dehalogenation (radioactivity in stomach and neck): minimal deiodination or deastatination
[2]; i.v., 10 min after injection
  Biodistribution of radioactivity: Blood: 26.93 (0.47) % injected dose per gram
  Biodistribution of radioactivity: Bone: 2.74 (0.53) % injected dose per gram
  Biodistribution of radioactivity: Brain: 0.53 (0.06) % injected dose per gram
  Biodistribution of radioactivity: Heart: 4.66 (0.37) % injected dose per gram
  Biodistribution of radioactivity: Kidney: 5.19 (0.64) % injected dose per gram
  Biodistribution of radioactivity: L. Intestine: 0.78 (0.05) % injected dose per gram
  Biodistribution of radioactivity: Liver: 3.61 (0.05) % injected dose per gram
  Biodistribution of radioactivity: Lung: 15.25 (2.29) % injected dose per gram
  Biodistribution of radioactivity: Muscle: 0.99 (0.14) % injected dose per gram
  Biodistribution of radioactivity: Neck: 0.04 (0.01) % injected dose
  Biodistribution of radioactivity: Pancreas: 2.59 (0.24) % injected dose per gram
  Biodistribution of radioactivity: S. Intestine: 1.42 (0.15) % injected dose per gram
  Biodistribution of radioactivity: Spleen: 2.56 (0.44) % injected dose per gram
  Biodistribution of radioactivity: Stomach: 0.85 (0.07) % injected dose
[2]; i.v., 1 h after injection
  Biodistribution of radioactivity: Blood: 17.94 (1.58) % injected dose per gram
  Biodistribution of radioactivity: Bone: 1.92 (0.21) % injected dose per gram
  Biodistribution of radioactivity: Brain: 0.38 (0.12) % injected dose per gram
  Biodistribution of radioactivity: Heart: 4.88 (0.26) % injected dose per gram
  Biodistribution of radioactivity: Kidney: 4.36 (0.53) % injected dose per gram
  Biodistribution of radioactivity: L. Intestine: 0.93 (0.15) % injected dose per gram
  Biodistribution of radioactivity: Liver: 2.54 (0.38) % injected dose per gram
  Biodistribution of radioactivity: Lung: 10.21 (2.55) % injected dose per gram
  Biodistribution of radioactivity: Muscle: 1.25 (0.10) % injected dose per gram
  Biodistribution of radioactivity: Neck: 0.04 (0.01) % injected dose
  Biodistribution of radioactivity: Pancreas: 2.07 (0.45) % injected dose per gram
  Biodistribution of radioactivity: S. Intestine: 1.59 (0.31) % injected dose per gram
  Biodistribution of radioactivity: Spleen: 1.77 (0.11) % injected dose per gram
  Biodistribution of radioactivity: Stomach: 0.84 (0.27) % injected dose
[2]; i.v., 4 h after injection
  Biodistribution of radioactivity: Blood: 13.40 (1.08) % injected dose per gram
  Biodistribution of radioactivity: Bone: 1.59 (0.09) % injected dose per gram
  Biodistribution of radioactivity: Brain: 0.32 (0.06) % injected dose per gram
  Biodistribution of radioactivity: Heart: 4.31 (0.39) % injected dose per gram
  Biodistribution of radioactivity: Kidney: 4.44 (0.25) % injected dose per gram
  Biodistribution of radioactivity: L. Intestine: 1.15 (0.35) % injected dose per gram
  Biodistribution of radioactivity: Liver: 1.55 (0.24) % injected dose per gram
  Biodistribution of radioactivity: Lung: 7.81 (1.92) % injected dose per gram
  Biodistribution of radioactivity: Muscle: 1.27 (0.08) % injected dose per gram
  Biodistribution of radioactivity: Neck: 0.04 (0.01) % injected dose
  Biodistribution of radioactivity: Pancreas: 1.76 (0.35) % injected dose per gram
  Biodistribution of radioactivity: S. Intestine: 1.30 (0.19) % injected dose per gram
  Biodistribution of radioactivity: Spleen: 1.60 (0.25) % injected dose per gram
  Biodistribution of radioactivity: Stomach: 0.83 (0.18) % injected dose
[2]; i.v., 12 h after injection
  Biodistribution of radioactivity: Blood: 12.23 (1.51) % injected dose per gram
  Biodistribution of radioactivity: Bone: 1.91 (0.32) % injected dose per gram
  Biodistribution of radioactivity: Brain: 0.42 (0.07) % injected dose per gram
  Biodistribution of radioactivity: Heart: 3.83 (0.57) % injected dose per gram
  Biodistribution of radioactivity: Kidney: 5.31 (0.31) % injected dose per gram
  Biodistribution of radioactivity: L. Intestine: 0.79 (0.16) % injected dose per gram
  Biodistribution of radioactivity: Liver: 1.58 (0.12) % injected dose per gram
  Biodistribution of radioactivity: Lung: 7.79 (0.46) % injected dose per gram
  Biodistribution of radioactivity: Muscle: 1.37 (0.10) % injected dose per gram
  Biodistribution of radioactivity: Neck: 0.18 (0.06) % injected dose
  Biodistribution of radioactivity: Pancreas: 1.44 (0.82) % injected dose per gram
  Biodistribution of radioactivity: S. Intestine: 1.06 (0.11) % injected dose per gram
  Biodistribution of radioactivity: Spleen: 1.71 (0.33) % injected dose per gram
  Biodistribution of radioactivity: Stomach: 1.04 (0.11) % injected dose
[2]; i.v., 24 h after injection
  Biodistribution of radioactivity: Blood: 10.45 (0.19) % injected dose per gram
  Biodistribution of radioactivity: Bone: 1.56 (0.33) % injected dose per gram
  Biodistribution of radioactivity: Brain: 0.43 (0.14) % injected dose per gram
  Biodistribution of radioactivity: Heart: 4.06 (1.41) % injected dose per gram
  Biodistribution of radioactivity: Kidney: 3.50 (0.24) % injected dose per gram
  Biodistribution of radioactivity: L. Intestine: 0.62 (0.15) % injected dose per gram
  Biodistribution of radioactivity: Liver: 1.43 (0.07) % injected dose per gram
  Biodistribution of radioactivity: Lung: 5.77 (0.84) % injected dose per gram
  Biodistribution of radioactivity: Muscle: 1.28 (0.09) % injected dose per gram
  Biodistribution of radioactivity: Neck: 0.14 (0.06) % injected dose
  Biodistribution of radioactivity: Pancreas: 1.61 (0.22) % injected dose per gram
  Biodistribution of radioactivity: S. Intestine: 0.81 (0.05) % injected dose per gram
  Biodistribution of radioactivity: Spleen: 1.33 (0.43) % injected dose per gram
  Biodistribution of radioactivity: Stomach: 1.31 (0.10) % injected dose
[2]; i.v., excreted for 24 h after injection (column not printed safely), Table S2
  Biodistribution of radioactivity: Feces: 2.00 (0.33) % injected dose
[2]; profile resembled that of [125I]5
  Blood retention: prolonged blood retention
[3]
  Effect of IPBA administration on radioactivity levels in tissues: significantly decreased
[4]
  Radiochemical purity after incubation (in vitro stability): 97.1 ± 0.9%

Source: PMC12251549, “Engineering a Radiohybrid PSMA Ligand with an Albumin-Binding Moiety and Pharmacokinetic Modulation via an Albumin-Binding Competitor for Radiotheranostics” (Molecules, 2025)
